As usually defined, the Kd is the concentration at which binding is half-saturated. Low values mean higher affinity, high ones lower affinity.

This assay addresses T1, Nitric oxide synthase, endothelial (Bos taurus, UniProt P29473).
T1 sequence (P29473 whole entry): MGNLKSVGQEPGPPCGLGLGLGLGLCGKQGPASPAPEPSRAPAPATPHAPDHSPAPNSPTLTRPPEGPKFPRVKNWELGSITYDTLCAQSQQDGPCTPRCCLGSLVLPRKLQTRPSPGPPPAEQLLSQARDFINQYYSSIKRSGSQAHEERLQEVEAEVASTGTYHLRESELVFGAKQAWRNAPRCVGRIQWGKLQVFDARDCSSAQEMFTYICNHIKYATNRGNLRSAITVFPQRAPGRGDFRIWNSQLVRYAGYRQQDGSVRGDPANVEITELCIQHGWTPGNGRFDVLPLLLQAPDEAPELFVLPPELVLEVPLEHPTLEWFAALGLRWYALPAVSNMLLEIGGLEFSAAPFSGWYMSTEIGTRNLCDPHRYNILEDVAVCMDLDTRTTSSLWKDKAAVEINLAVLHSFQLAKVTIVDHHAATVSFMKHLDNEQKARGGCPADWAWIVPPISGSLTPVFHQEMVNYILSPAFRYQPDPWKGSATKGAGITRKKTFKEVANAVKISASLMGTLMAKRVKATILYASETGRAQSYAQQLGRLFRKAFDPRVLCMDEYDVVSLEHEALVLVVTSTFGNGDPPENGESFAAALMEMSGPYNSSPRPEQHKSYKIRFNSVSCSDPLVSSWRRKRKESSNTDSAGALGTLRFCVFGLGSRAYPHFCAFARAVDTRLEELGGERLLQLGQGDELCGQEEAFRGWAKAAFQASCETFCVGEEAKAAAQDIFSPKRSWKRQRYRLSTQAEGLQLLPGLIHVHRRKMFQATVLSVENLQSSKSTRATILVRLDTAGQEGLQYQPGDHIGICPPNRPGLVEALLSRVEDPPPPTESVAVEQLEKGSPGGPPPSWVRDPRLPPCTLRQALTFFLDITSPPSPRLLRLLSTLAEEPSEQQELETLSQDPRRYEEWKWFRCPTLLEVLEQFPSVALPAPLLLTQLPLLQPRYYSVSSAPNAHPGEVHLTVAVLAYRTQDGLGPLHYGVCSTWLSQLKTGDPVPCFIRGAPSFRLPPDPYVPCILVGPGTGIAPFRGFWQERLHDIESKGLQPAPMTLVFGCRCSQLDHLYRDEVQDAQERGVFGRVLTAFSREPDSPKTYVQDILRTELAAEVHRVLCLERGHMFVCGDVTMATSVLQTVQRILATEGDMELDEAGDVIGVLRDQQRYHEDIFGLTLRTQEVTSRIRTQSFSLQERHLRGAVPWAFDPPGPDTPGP
Description: Polarization Assay. The following applies: pH 7.5; 25 °C. On the procedure:
eNOS was diluted to varying concentrations in buffer containing 50 mM inorganic phosphate, 50 mM KCl, and 5 mM DTT, pH 7.5. A spectrophotometer was used to determine the concentration of the fluorescein-labeled peptide using the extinction coefficient for fluorescein (ε492 nm = 79,000 M^-1). Peptides (100 nM) were added to samples containing varying concentrations of eNOS and incubated for 1 h at room temperature. Samples were then plated on 384-well Grenier Bio-One solid black microplates in triplicate. Polarization was measured with a Tecan Infinite M1000 Pro apparatus in fluorescent polarization mode using 470-nm excitation and 515-nm emission filters.

Consider H-TTFTVTKYWF-OH [TTFTVTKYWF], for which the Kd was 42 nM.
In turn, H-TTATVTKYWF-OH [TTATVTKYWF] returned a Kd of 23 nM.
